# Experimental data as given in article PMC5881522, “Molecular Defects in Cardiac Myofilament Ca^2+-Regulation Due to Cardiomyopathy-Linked Mutations Can Be Reversed by Small Molecules Binding to Troponin” (Frontiers in Physiology, 2018).
# Entries after “also recorded” stand apart in the source; their conditions may differ.
# Tests used:
# [1] = target: T1, thin filaments containing E180G tropomyosin (TPM1 E180G, HCM) (Homo sapiens, UniProt P19429+P45379+P63316); experiment: IVMA Ca2+-activation curves, TPM1 E180G; assay type: biochemical; details: phosphorylated and unphosphorylated E180G tropomyosin thin filaments, 25 μM for Quercetin and ECG
# T1 construct: isolate troponin from 100 mg of donor heart tissue; from tissue; host or cells: troponin: human donor heart; tropomyosin: baculovirus/Sf9 (gift); actin: rabbit fast-twitch skeletal muscle
# Source text: (§1) Recombinant human sequence tropomyosin was a gift from Kristen Nowak and Elyshia MacNamara, University, Western Australia. Wild-type α-tropomyosin (Tpm1.1) and mutant E180G tropomyosin were expressed in a baculovirus/Sf9 system (Akkari et al., [2002]; Marston et al., [2013]). Skeletal muscle F-actin and myosin were isolated from rabbit fast-twitch skeletal muscle as previously described (Messer et al., [2007]). TnC G159D mutant troponin was extracted from a mutant human heart sample (Dyer et al., [2009]), E99K mutant cardiac actin was extracted from the E99K transgenic mouse heart (Song et al., [2013]).
# (§2) Thin filaments were reconstituted with 10 nM rabbit skeletal or mouse cardiac muscle α-actin (labeled with TRITC phalloidin), tropomyosin (40–60 nM), and troponin (60 nM) to study Ca^2+-regulation of filament motility by the quantitative in vitro motility assay (IVMA) (Fraser and Marston, [1995]; Messer et al., [2007]). Thin filament movement over a bed of immobilized rabbit fast skeletal muscle heavy meromyosin (100 μg/ml) was compared in paired motility cells, in which troponin varied by a single factor (mutation, phosphorylation state, or treatment with drug). The temperature was set to 29°C. Filament movement was recorded and analyzed as previously described (Marston et al., [1996]), yielding two parameters, the fraction of filaments moving and the speed of moving filaments. Only the fraction of filaments motile is used in this study.
# The fraction motile was measured over a range of Ca^2+ concentrations to generate Ca^2+-activation curves. The data were fitted to the 4-variable Hill equation to yield a value for EC50 and nH. Most assays of the effect of compounds are single measurements. […]
# [2] = target: T2, tropomyosin E180G mutant-containing thin filaments (Homo sapiens, UniProt P19429+P45379+P63316); experiment: Single [Ca2+] in vitro motility assay screen for re-coupling; assay type: biochemical; details: for Coupling Difference (Initial Screen E180G): 100 μM compound, difference between motility (%) in phosphorylated and unphosphorylated thin filaments, TPM1 E180G, >10% = re-coupling; for Coupling Difference (Initial Screen E180G) / re-coupling activity (in words): 0.037 μM Ca2+; for re-coupling activity (in words): E180G thin filaments
# T2 construct: isolate troponin from 100 mg of donor heart tissue; from tissue; host or cells: troponin: human donor heart; tropomyosin: baculovirus/Sf9 (gift); actin: rabbit fast-twitch skeletal muscle
# Description: as §2
# For drug screening, motility was measured with paired phosphorylated and unphosphorylated tropomyosin E180G mutant-containing thin filaments at a fixed 0.037 μM Ca^2+. Most assays were single measurements.
# For the rapid screening of compounds, we devised a single Ca^2+ concentration assay. This is illustrated in Figures 2A,B for quercetin. The test system contains skeletal muscle actin, human sequence recombinant tropomyosin 1.1 containing the E180G HCM-associated mutation and human cardiac troponin from donor hearts in the phosphorylated and unphosphorylated form. At 0.037 μM Ca^2+ the filaments are about 40% motile irrespective of phosphorylation level whilst when quercetin is added the phosphorylated Ca^2+ activity curve shifts to the right and % motility at 0.037 μM Ca^2+ drops, whilst the unphosphorylated level is unchanged. We have set a difference between phosphorylated and unphosphorylated >10% as indicating re-coupling activity. This assay method can also be used to construct a dose-response curve as shown. We investigated compounds in 4 categories.
# Figure 2 Single [Ca^2+] screen for re-coupling compounds. […] Solid lines, phosphorylated state; dotted lines, unphosphorylated state. Purple lines and points, E180G thin filaments; green lines and points, E180G thin filaments + Quercetin (B) Dose -response curve for quercetin recoupling activity measured at a constant concentration of 0.037 μM Ca^2+. INSET, kinetic analysis of dose response curve; difference between phosphorylated and unphosphorylated states is plotted against quercetin concentration. The Hill equation is fitted to the data, EC50 = 8 μM. (C,D) The effect of 100 μM drug treatment on the difference between % of motility of phosphorylated and unphosphorylated tropomyosin E180G mutant-containing thin filaments at 0.037 μM Ca^2+. (C) EGCG-related molecules (for structures 1–28 see Figure S1 and Table 1). (D) Silybin, related compounds and other HsP90 inhibitors and Ca^2+ desensitizers. The threshold for positive re-coupling was set at a 10% difference (dotted line).
# [3] = tested on: isolated cardiomyocytes from ACTC E99K HCM transgenic mice; experiment: Lusitropic effect of dobutamine in isolated cardiomyocytes; assay type: cell-based; details: blunted in ACTC E99K mouse cardiomyocytes; preliminary experiments
# Source text: The main effect of uncoupling of the modulation of Ca^2+ sensitivity by TnI phosphorylation is the loss of the lusitropic response to beta adrenergic stimulation, which is usually accompanied by blunting of the whole physiological adrenergic response.
# [4] = target: T3, thin filaments containing TnC G159D (TNNC1 G159D, DCM) (Homo sapiens, UniProt P19429+P45379+P63316, G159D); experiment: IVMA Ca2+-activation curves, TNNC1 G159D; assay type: biochemical; details: phosphorylated and unphosphorylated TnC G159D thin filaments
# T3 construct: TnC G159D mutant troponin was extracted from a mutant human heart sample; from tissue; host or cells: mutant human heart sample (troponin); rabbit skeletal muscle (actin)
# Source text: as §1
# Thin filaments were reconstituted with 10 nM rabbit skeletal or mouse cardiac muscle α-actin (labeled with TRITC phalloidin), tropomyosin (40–60 nM), and troponin (60 nM) to study Ca^2+-regulation of filament motility by the quantitative in vitro motility assay (IVMA) (Fraser and Marston, [1995]; Messer et al., [2007]). […] Filament movement was recorded and analyzed as previously described (Marston et al., [1996]), yielding two parameters, the fraction of filaments moving and the speed of moving filaments. […]
# The fraction motile was measured over a range of Ca^2+ concentrations to generate Ca^2+-activation curves. […]
# Hsp90 = tested on: Hsp90; set-up: method as in Khandelwal et al., 2013; details: ref Khandelwal et al., 2013; read-out: EC50 Hsp90 inhibition assay; cited from earlier work
# [5] = dose-response of % motility difference at 0.037 μM Ca2+, Hill fit
Coupling Difference (Initial Screen E180G) [2],re-coupling activity (in words) [2],SMILES,other results
3%,poor recoupling molecule,"COc1cc([C@H]2Oc3cc(-c4oc5cc(O)cc(O)c5c(=O)c4O)ccc3O[C@@H]2CO)ccc1O [Dehydrosilybin A, 2,3-dehydrosilybin A]","effect on Ca2+-activation curves (desensitizer / re-coupler), in words [1]: ineﬀective"
62%,restores coupling,"COc1cc([C@@H]2Oc3cc(-c4oc5cc(O)cc(O)c5c(=O)c4O)ccc3O[C@H]2CO)ccc1O [Dehydrosilybin B, 2,3-dehydrosilybin B]","effect on Ca2+-activation curves (desensitizer / re-coupler), in words [1]: pure recoupling; effect on Ca2+-activation curves (desensitizer / re-coupler), in words ([1]; listed as dehydrosilybin B): recouples; EC50 [2, 5]: 47 µM"
8%,–,O=C(O[C@@H]1Cc2c(O)cc(O)cc2O[C@@H]1c1ccc(O)c(O)c1)c1cc(O)c(O)c(O)c1 [Epicatechin Gallate],"effect on Ca2+-activation curves (desensitizer / re-coupler), in words ([1]; listed as ECG): pure desensitizer; also recorded: desensitizer but not a recoupler"
69%,–,Oc1cc(O)c2c(c1)O[C@H](c1ccc(O)c(O)c1)[C@H](O)C2 [Epicatechin],–
4%,–,COc1cc(C2Oc3ccc([C@H]4Oc5cc(O)cc(O)c5C(=O)[C@@H]4O)cc3OC2CO)ccc1O (stereo partly drawn) [Isosilybin],–
46%,–,CO[C@@H]1[C@@H](OC(N)=O)[C@@H](O)[C@H](Oc2ccc3c(O)c(NC(=O)c4ccc(O)c(CC=C(C)C)c4)c(=O)oc3c2C)OC1(C)C [Novobiocin],–
0%,do not re-couple,COC(=O)N1CCN(Cc2cccc(NC(=O)Nc3ccc(C)nc3)c2F)CC1 [Omecamtiv Mecarbil],–
50%,effective re-couplers,COc1cc(/C=C/c2ccc(O)cc2)cc(OC)c1 [Pterostilbene],–
63%,effective re-couplers,Oc1ccc(/C=C/c2cc(O)cc(O)c2)cc1 [Resveratrol],"lusitropic effect of dobutamine, in words [3]: restored"
5%,complex dose sensitive,COc1cc([C@H]2Oc3cc([C@H]4Oc5cc(O)cc(O)c5C(=O)[C@@H]4O)ccc3O[C@@H]2CO)ccc1O [Silybin A],"effect on Ca2+-activation curves (desensitizer / re-coupler), in words [4]: pure desensitizer"
12.0%,–,COc1cc(C2Oc3cc([C@H]4Oc5cc(O)cc(O)c5C(=O)[C@@H]4O)ccc3OC2CO)ccc1O (stereo partly drawn) [Silybin],"EC50 [2, 5]: 47 µM"
35%,–,COc1cc([C@@H]2Oc3c(O)cc([C@H]4Oc5cc(O)cc(O)c5C(=O)[C@@H]4O)cc3[C@H]2CO)ccc1O [Silychristin],–
20%,–,COc1cc([C@@H]2[C@H]3CO[C@@]4(O)C(=O)[C@@H]2C=C([C@H]2Oc5cc(O)cc(O)c5C(=O)[C@@H]2O)[C@@H]34)ccc1O [Silydianin],–
30%,–,COc1ccc(-c2coc3cc(O[C@@H]4O[C@H](CO)[C@@H](O)[C@H](O)[C@H]4O)cc(O)c3c2=O)cc1 [Sissotrin],–
60%,–,O=C1c2c(O)cc(O)cc2OC(c2ccc(O)c(O)c2)C1O (stereo not drawn) [Taxifolin],–
50%,effective re-couplers,NCCCCCCNS(=O)(=O)c1cccc2c(Cl)cccc12 [W-7],–
27.0%,effective re-couplers,COc1cccc(-c2cc(C(=O)OC3COc4cc(O)cc(O)c4C3)ccc2OC)c1 (stereo not drawn) [compound 2],"EC50 (Hsp90): 22 µM; EC50 [2, 5]: 30 µM"
27.0%,–,COc1cccc(C(=O)OC2COc3cccc(O)c3C2)c1 (stereo not drawn) [compound 4],"EC50 (Hsp90): > 100 µM; EC50 [2, 5]: 34 µM"
−11.0%,reverse effect,COc1ccc(C(=O)OC2COc3cc(OC)cc(OC)c3C2)cc1 (stereo not drawn) [compound 7],"EC50 (Hsp90): 32 µM; EC50 [2, 5]: 67 µM"
No Effect,inactive,COc1cc(OC)c2c(c1)OCC(OC(=O)c1ccc(OC(C)=O)c(CC=C(C)C)c1)C2 (stereo not drawn) [compound 8],EC50 (Hsp90): 38 µM
20.0%,–,COc1ccc(C(=O)OC2COc3cccc(O)c3C2)cc1 (stereo not drawn) [compound 9],"EC50 (Hsp90): > 100 µM; EC50 [2, 5]: 35 µM"
−1.0%,–,O=C(O[C@H]1COc2cc(O)cc(O)c2C1)c1cccc(O)c1 [compound 12],"EC50 (Hsp90): 63 µM; nH (Table 6-1, E180G + Drug) ([2]; Hill coefficient of dose-response of % motility difference, 0.037 µM Ca2+): No%Eﬀect; EC50 (Table 6-1, E180G + Drug) ([2]; difference between phosphorylated and dephosphorylated TPM1 E180G thin filaments, 0.037 µM Ca2+, Hill fit): No%Eﬀect; E180G EC50 % Motility Difference [2, 5]: No Effect; Magnitute (% difference) ([2]; fitted magnitude of dose-response of % motility difference, 0.037 µM Ca2+): No%Eﬀect"
6.0%,inactive,CCOc1cccc(C(=O)OC2COc3cc(OC)cc(OC)c3C2)c1 (stereo not drawn) [compound 16],"EC50 (Hsp90): 8 µM; EC50 [2, 5]: 31 µM"
24.0%,re-coupler,COc1cc(OC)cc(C(=O)OC2COc3cc(OC)cc(OC)c3C2)c1 (stereo not drawn) [compound 19],EC50 (Hsp90): 21 µM

SMILES,Coupling Difference (Initial Screen E180G) [2],re-coupling activity (in words) [2],other results
Oc1cc(O)c2c(c1)O[C@H](c1cc(O)c(O)c(O)c1)[C@H](O)C2 [Epigallocatechin],62%,–,–
Oc1cc(O)c2c(c1)O[C@H](c1cc(O)c(O)c(O)c1)[C@@H](O)C2 [Gallocatechin],68%,–,–
O=c1c(O)c(-c2ccc(O)c(O)c2)oc2cc(O)cc(O)c12 [Quercetin],51%,–,"effect on Ca2+-activation curves (desensitizer / re-coupler), in words [1]: typical pure recoupler; also recorded: pure recoupling; EC50 [2, 5]: 8 µM"
